Experimental data published in ChEMBL document CHEMBL3352223, “Synthesis, anti-cancer and anti-inflammatory activity of novel 2-substituted isoflavenes” (Bioorg Med Chem, 2014).

Columns and labels:
[1] = Antiproliferative activity against human SHEP cells after 72 hrs by Alamar blue/spectrophotometric analysis; format: functional, cell-based
MDA-MB-231 = experiment: Antiproliferative activity against human MDA-MB-231 cells after 72 hrs by Alamar blue/spectrophotometric analysis; format: functional, cell-based; conditions: MDA-MB-231, 72 h
RAW264.7 = experiment: Antiinflammatory activity against mouse RAW264.7 cells assessed as reduction of LPS-induced IL6 production at 10 uM after 24 hrs by ELISA; format: functional; conditions: RAW264.7, 24 h

Row | Compound | IC50 (MDA-MB-231) | IC50 [1] | inhibition at 10 µM (RAW264.7)
1 | Oc1ccc(C2=Cc3ccc(O)cc3OC2)cc1 [IDRONOXIL] | 33 µM | 9.9 µM | 
2 | COc1ccc(C2=C(c3ccc(O)cc3)C(CC(C)=O)Oc3cc(O)ccc32)cc1 (centres undefined) | 39 µM | 69 µM | 
3 | CC(C)CC(=O)CC1Oc2cc(O)ccc2C=C1c1ccc(O)cc1 (centres undefined) | 67 µM | 139 µM | 
4 | C/C(CC1Oc2cc(O)ccc2C=C1c1ccc(O)cc1)=N\Nc1ccc([N+](=O)[O-])cc1[N+](=O)[O-] (centres undefined) | 36 µM | 62 µM | 
5 | CC(=O)CC1Oc2cc(O)ccc2C=C1c1ccc(O)cc1 (centres undefined) | 145 µM | 124 µM | > 50%
6 | Cc1cc(C2Oc3cc(O)ccc3C=C2c2ccc(O)cc2)cc(C)c1N (centres undefined) | 53 µM | 102 µM | > 50%

The next lines start with results.

Row | IC50 (MDA-MB-231) | Compound | IC50 [1] | inhibition at 10 µM (RAW264.7)
7 | 198 µM | CCc1ccc(C(=O)CC2Oc3cc(O)ccc3C=C2c2ccc(O)cc2)cc1 (centres undefined) | 377 µM | 
8 | 7.6 µM | COc1ccc(C(=O)CC2Oc3cc(O)ccc3C=C2c2ccc(O)cc2)cc1 (centres undefined) | 37 µM | > 50%
9 | 55 µM | Cc1ccc(C(=O)CC2Oc3cc(O)ccc3C=C2c2ccc(O)cc2)cc1 (centres undefined) | 60 µM | 
10 | 151 µM | O=C(CC1Oc2cc(O)ccc2C=C1c1ccc(O)cc1)c1ccc(Cl)cc1 (centres undefined) | 167 µM | 
11 | 106 µM | O=C(CC1Oc2cc(O)ccc2C=C1c1ccc(O)cc1)c1cccc2ccccc12 (centres undefined) | 128 µM | 
12 | 37 µM | O=C(CC1Oc2cc(O)ccc2C=C1c1ccc(O)cc1)c1ccc(Br)cc1 (centres undefined) | 33 µM | 
13 | 88 µM | O=C(CC1Oc2cc(O)ccc2C=C1c1ccc(O)cc1)c1ccccc1 (centres undefined) | 102 µM | 
